SMILES strings stand for the structures.

This passage reports EC50 results from patent publication US20220323455A1, “FUSED HETEROCYCLIC DERIVATIVES AS ANTIVIRAL AGENTS” (priority 2019, published 2022).

This test has as its system HBV. The experiment in a line: HBV replication inhibition assay (BDNA assay) in HepG2.2.15 cells. In kind it is cell-based, Hepatitis B virus. Particulars: 6 days, encapsidated HBV DNA in supernatant. The method, then: HBV replication inhibition by the disclosed compounds were determined in cells infected or transfected with HBV or cells with stably integrated HBV, such as HepG2.2.15 cells (Sells et al. 1987). In this example, HepG2.2.15 cells were maintained in cell culture medium containing 10% fetal bovine serum (FBS), Geneticin, L-glutamine, penicillin and streptomycin. HepG2.2.15 cells were seeded in 96-well plates at a density of 40,000 cells/well and were treated with serially diluted compounds at a final DMSO concentration of 0.5% either alone or in combination by adding drugs in a checker box format. Cells were incubated with compounds for three days, after which medium was removed and fresh medium containing compounds was added to cells and incubated for another three days. At day 6, supernatant was removed and treated with DNase at 37° C. for 60 minutes, followed by enzyme inactivation at 75° C. for 15 minutes. Encapsidated HBV DNA was released from the virions and covalently linked HBV polymerase by incubating in lysis buffer (Affymetrix QS0010) containing 2.5 μg proteinase K at 50° C. for 40 minutes. HBV DNA was denatured by addition of 0.2 M NaOH and detected using a branched DNA (BDNA) QuantiGene assay kit according to manufacturer recommendation (Affymetrix). HBV DNA levels were also quantified using qPCR, based on amplification of encapsidated HBV DNA extraction with QuickExtraction Solution (Epicentre Biotechnologies) and amplification of HBV DNA using HBV specific PCR probes that can hybridize to HBV DNA and a fluorescently labeled probe for quantitation. In addition, cell viability of HepG2.2.15 cells incubated with test compounds alone or in combination was determined by using CellTitre-Glo reagent according to the manufacturer protocol (Promega). The mean background signal from wells containing only culture medium was subtracted from all other samples, and percent inhibition at each compound concentration was calculated by normalizing to signals from HepG2.2.15 cells treated with 0.5% DMSO using equation E1.
% inhibition(DMSOave−Xi)DMSOave×100% E1:
where DMSOave is the mean signal calculated from the wells that were treated with DMSO control (0% inhibition control) and Xi is the signal measured from the individual wells. EC50 values, effective concentrations that achieved 50% inhibitory effect, were determined by non-linear fitting using Graphpad Prism software (San Diego, Calif.) and equation E2.
Y=Ymin+(Ymax−Ymin)/(1+10(Log EC50−X)×HillSlope) E2:
where Y represents percent inhibition values and X represents the logarithm of compound concentrations.
Selected disclosed compounds were assayed in the HBV replication assay (BDNA assay), as described above, and a representative group of these active compounds is shown in Table 5.
Regarding `COC(=O)NCC1CCC(F)(F)c2c3c(nn2C1)C[C@@H](C)N(C(=O)Nc1ccnc(C(F)F)c1F)C3` (single isomer, unassigned) [Example 110, Methyl (((3R,8S*)-2-((2-(difluoromethyl)-3-fluoropyridin-4-yl)carbamoyl)-11,11-difluoro-3-methyl-2,3,4,7,8,9,10,11-octahydro-1H-pyrido[4′,3′:3,4]pyrazolo[1,5-a]azepin-8-yl)methyl)carbamate], the EC50 came to 18 nM.
Under `N#Cc1cc(NC(=O)N2CCc3nn4c(c3C2)C(F)(F)CC(CO)CC4)ccc1F` (single isomer, unassigned) [Example 136, (R*)—N-(3-Cyano-4-fluorophenyl)-11,11-difluoro-9-(hydroxymethyl) -3,4,8,9,10,11-hexahydro-1H-pyrido[4′,3′:3,4]pyrazolo[1,5-a]azepine-2(7H)-carboxamide] stands 5 nM; under `C[C@@H]1Cc2nn3c(c2CN1C(=O)Nc1ccc(F)c(C#N)c1)C(F)(F)CCC(C(C)(C)O)C3` (single isomer, unassigned) [Example 101, (3R,8S*)—N-(3-Cyano-4-fluorophenyl)-11,11-difluoro-8-(2-hydroxypropan-2-yl)-3-methyl-3,4,8,9,10,11-hexahydro-1H-pyrido[4′,3′:3,4]pyrazolo[1,5-a]azepine-2(7H)-carboxamide], 44 nM; under `N#Cc1c(F)ccc(NC(=O)N2CCc3nn4c(c3C2)C(F)(F)CCC(CO)C4)c1F` (single isomer, unassigned) [Example 21, (S*)—N-(3-Cyano-2,4-difluorophenyl)-11,11-difluoro-8-(hydroxymethyl)-3,4,8,9,10,11-hexahydro-1H-pyrido[4′,3′:3,4]pyrazolo[1,5-a]azepine-2(7H)-carboxamide], 1 nM.
Under `C[C@@H]1Cc2nn3c(c2CN1C(=O)Nc1ccnc(Br)c1F)C(F)(F)CC(O)CC3` (single isomer, unassigned) [Example 117, (3R,9S*)—N-(2-Bromo-3-fluoropyridin-4-yl)-11,11-difluoro-9-hydroxyl-3-methyl-3,4,8,9,10,11-hexahydro-1H-pyrido[4′,3′:3,4]pyrazolo[1,5-a]azepine-2(7H)-carboxamide] stands 18 nM; under `O=C(Nc1ccnc(C(F)F)c1F)N1CCc2nn3c(c2C1)C(F)(F)CCC(O)(COCC(F)F)C3` (single isomer, unassigned) [Example 33, (R*)-8-((2,2-Difluoroethoxy)methyl)-N-(2-(difluoromethyl)-3-fluoropyridin-4-yl)-11,11-difluoro-8-hydroxy-3,4,8,9,10,11-hexahydro-1H-pyrido[4′,3′:3,4]pyrazolo[1,5-a]azepine-2(7H)-carboxamide], 356 nM.
Under `O=C(Nc1ccnc(Br)c1F)N1CCc2nn3c(c2C1)C(F)(F)CC(O)CC3` (single isomer, unassigned) [Example 137, (R*)—N-(2-Bromo-3-fluoropyridin-4-yl)-11,11-difluoro-9-hydroxy-3,4,8,9,10,11-hexahydro-1H-pyrido[4′,3′:3,4]pyrazolo[1,5-a]azepine-2(7H)-carboxamide] stands 2 nM; under `O=C(Nc1ccnc(Br)c1F)N1CCc2nn3c(c2C1)C(F)(F)CCC(CO)C3` (single isomer, unassigned) [Example 22, (S*)—N-(2-Bromo-3-fluoropyridin-4-yl)-11,11-difluoro-8-(hydroxymethyl)-3,4,8,9,10,11-hexahydro-1H-pyrido[4′,3′:3,4]pyrazolo[1,5-a]azepine-2(7H)-carboxamide], 4 nM.
As for `O=C(Nc1ccnc(Br)c1F)N1CCc2nn3c(c2C1)C(F)(F)CCC(O)(CF)C3` (single isomer, unassigned) [Example 39, (R*)—N-(2-Bromo-3-fluoropyridin-4-yl)-11,11-difluoro-8-(fluoromethyl)-8-hydroxy-3,4,8,9,10,11-hexahydro-1H-pyrido[4′,3′:3,4]pyrazolo[1,5-a]azepine-2(7H)-carboxamide], the EC50 stood at 144 nM.
Consider `O=C(Nc1ccnc(C(F)F)c1F)N1CCc2nn3c(c2C1)C(F)(F)CC(O)CC3` (single isomer, unassigned) [Example 139, (R*)—N-(2-(Difluoromethyl)-3-fluoropyridin-4-yl)-11,11-difluoro-9-hydroxy-3,4,8,9,10,11-hexahydro-1H-pyrido[4′,3′:3,4]pyrazolo[1,5-a]azepine-2(7H)-carboxamide], for which the EC50 stood at 21 nM.
Under `O=C(Nc1ccnc(Br)c1F)N1CCc2nn3c(c2C1)C(F)(F)CC(O)CC3` (single isomer, unassigned) [Example 140, (S*)—N-(2-Bromo-3-fluoropyridin-4-yl)-11,11-difluoro-9-hydroxy-3,4,8,9,10,11-hexahydro-1H-pyrido[4′,3′:3,4]pyrazolo[1,5-a]azepine-2(7H)-carboxamide] stands 27 nM.
As to `N#CCC1(O)CCC(F)(F)c2c3c(nn2C1)CCN(C(=O)Nc1ccnc(C(F)F)c1F)C3` (single isomer, unassigned) [Example 42, (R*)-8-(Cyanomethyl)-N-(2-(difluoromethyl)-3-fluoropyridin-4-yl)-11,11-difluoro-8-hydroxy-3,4,89,10,11-hexahydro-1H-pyrido[4′,3′:3,4]pyrazolo[1,5-a]azepine-2(7H)-carboxamide], the EC50 was 163 nM.
The result for `C[C@@H]1Cc2nn3c(c2CN1C(=O)Nc1ccnc(C(F)F)c1F)C(F)(F)CC(O)CC3` (single isomer, unassigned) [Example 121, (3R,9S*)—N-(2-(Difluoromethyl)-3-fluoropyridin-4-yl)-11,11-difluoro-9-hydroxy-3-methyl-3,4,8,9,10,11-hexahydro-1H-pyrido[4′,3′:3,4]pyrazolo[1,5-a]azepine-2(7H)-carboxamide] reads 8 nM; that for `COC(=O)NCC1CCC(F)(F)c2c3c(nn2C1)C[C@@H](C)N(C(=O)Nc1ccnc(Br)c1F)C3` (single isomer, unassigned) [Example 106, Methyl (((3R,8R*)-2-((2-bromo-3-fluoropyridin-4-yl)carbamoyl)-11,11-difluoro-3-methyl-2,3,4,7,8,9,10,11-octahydro-1H-pyrido[4′,3′:3,4]pyrazolo[1,5-a]azepin-8-yl)methyl)carbamate], 10 nM; that for `C[C@@H]1Cc2nn3c(c2CN1C(=O)Nc1ccc(F)c(C#N)c1)C(F)(F)CCC(O)(COCC(F)F)C3` (single isomer, unassigned) [Example 94, (3R,8S*)—N-(3-Cyano-4-fluorophenyl)-8-((2,2-difluoroethoxy)methyl)-11,11-difluoro-8-hydroxy-3-methyl-3,4,8,9,10,11-hexahydro-1H-pyrido[4′,3′:3,4]pyrazolo[1,5-a]azepine-2(7H)-carboxamide], 15 nM.
The result for `CCC1(O)CCC(F)(F)c2c3c(nn2C1)CCN(C(=O)Nc1ccc(F)c(C#N)c1)C3` (single isomer, unassigned) [Example 62, (R*)—N-(3-Cyano-4-fluorophenyl)-8-ethyl-11,11-difluoro-8-hydroxy-3,4,8,9,10,11-hexahydro-1H-pyrido[4′,3′:3,4]pyrazolo[1,5-a]azepine-2(7H)-carboxamide] reads 42 nM.
